This is an account of results in US10035801B2, “Pyrazolo compounds and uses thereof” (CONSTELLATION PHARMACEUTICALS, INC., priority 2013, dated 2018).

pIC50: −log10 of the molar value.

T1 sequence (P29375 whole entry): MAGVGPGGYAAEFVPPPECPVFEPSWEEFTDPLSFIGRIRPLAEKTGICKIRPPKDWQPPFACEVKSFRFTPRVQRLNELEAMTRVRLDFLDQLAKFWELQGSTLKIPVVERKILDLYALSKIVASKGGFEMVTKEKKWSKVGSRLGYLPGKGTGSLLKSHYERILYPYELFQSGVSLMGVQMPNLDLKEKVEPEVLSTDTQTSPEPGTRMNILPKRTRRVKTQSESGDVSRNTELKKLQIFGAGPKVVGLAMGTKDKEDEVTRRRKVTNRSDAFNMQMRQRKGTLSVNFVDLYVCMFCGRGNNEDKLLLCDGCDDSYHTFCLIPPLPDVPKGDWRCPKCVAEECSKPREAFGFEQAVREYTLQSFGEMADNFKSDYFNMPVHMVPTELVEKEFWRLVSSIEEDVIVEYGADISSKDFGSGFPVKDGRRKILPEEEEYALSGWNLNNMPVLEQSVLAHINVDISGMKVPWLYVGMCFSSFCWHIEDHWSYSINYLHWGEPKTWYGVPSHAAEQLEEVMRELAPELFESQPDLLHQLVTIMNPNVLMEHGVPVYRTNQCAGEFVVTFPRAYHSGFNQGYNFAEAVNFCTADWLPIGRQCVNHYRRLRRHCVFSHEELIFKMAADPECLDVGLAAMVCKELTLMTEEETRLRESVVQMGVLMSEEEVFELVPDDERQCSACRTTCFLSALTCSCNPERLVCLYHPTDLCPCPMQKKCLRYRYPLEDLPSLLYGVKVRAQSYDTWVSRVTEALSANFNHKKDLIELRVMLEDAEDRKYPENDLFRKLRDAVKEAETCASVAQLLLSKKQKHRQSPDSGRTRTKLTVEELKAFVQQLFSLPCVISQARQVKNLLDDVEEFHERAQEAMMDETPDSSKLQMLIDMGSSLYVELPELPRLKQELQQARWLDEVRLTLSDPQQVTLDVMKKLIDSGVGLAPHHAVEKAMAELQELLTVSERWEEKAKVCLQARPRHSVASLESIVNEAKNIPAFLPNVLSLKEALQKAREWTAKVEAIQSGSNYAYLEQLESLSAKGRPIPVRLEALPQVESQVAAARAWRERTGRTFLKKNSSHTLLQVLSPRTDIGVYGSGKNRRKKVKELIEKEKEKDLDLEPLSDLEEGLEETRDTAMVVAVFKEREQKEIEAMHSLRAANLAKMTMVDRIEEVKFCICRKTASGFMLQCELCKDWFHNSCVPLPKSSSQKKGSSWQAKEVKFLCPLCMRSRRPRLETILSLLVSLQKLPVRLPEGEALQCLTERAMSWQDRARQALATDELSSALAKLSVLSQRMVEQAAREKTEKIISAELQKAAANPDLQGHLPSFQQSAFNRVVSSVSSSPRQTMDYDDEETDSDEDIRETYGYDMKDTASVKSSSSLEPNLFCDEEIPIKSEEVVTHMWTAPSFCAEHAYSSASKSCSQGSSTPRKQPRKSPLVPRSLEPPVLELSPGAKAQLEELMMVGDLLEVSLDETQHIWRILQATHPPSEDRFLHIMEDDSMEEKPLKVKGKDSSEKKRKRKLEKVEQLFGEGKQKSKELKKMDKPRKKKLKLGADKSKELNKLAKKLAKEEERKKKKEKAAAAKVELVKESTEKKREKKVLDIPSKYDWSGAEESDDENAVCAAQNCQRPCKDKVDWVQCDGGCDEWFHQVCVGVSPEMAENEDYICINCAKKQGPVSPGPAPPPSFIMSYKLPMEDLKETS

This assay has as its target T1, KDM5A (Homo sapiens, UniProt P29375).
T1 construct: Full length KDM5A enzyme was expressed and purified inhouse; made in house
Nature of the assay: KDM5 enzyme assay, KDM5A HTRF (Example 463). In kind it is biochemical. The following applies: compounds of Examples 1-432; read-out: Example 463 Assay KDM5A HTRF IC50. A general note: In TR-FRET formats the signal depends on donor and acceptor labels being close together.
For orientation: pIC50 means the IC50 on a negative log10 scale, so that one unit is a factor of ten. Consider `CC(C)c1c(-c2cnn(-c3cccnc3)c2)[nH]c2c(C#N)cnn2c1=O` [Example 10, 6-Isopropyl-7-oxo-5-(1-(pyridin-3-yl)-1H-pyrazol-4-yl)-4,7-dihydropyrazolo[1,5-a]pyrimidine-3-carbonitrile], for which the pIC50 was 7.62.

Consider `C=CC(=O)NCCn1cc(-c2[nH]c3c(C#N)cnn3c(=O)c2C(C)C)cn1` [Example 313], for which the pIC50 was 7.74.

On to `CC(C)c1c(-c2cnn(C3CCC(F)(F)C3)c2)[nH]c2c(C#N)cnn2c1=O` (stereo not drawn) [Compound 380], for which the pIC50 is 7.32.

Regarding `COc1cc(-c2[nH]c3c(C#N)cnn3c(=O)c2C(C)C)ccc1C#N` [Example 339], the pIC50 is 7.48.

As to `CC(C)c1c(-c2cnn(CCN)c2)[nH]c2c(C#N)cnn2c1=O` [Example 314], the pIC50 is 8.28.

`CC(C)c1cn(C)c2c(C#N)cnn2c1=O` [Example 198]: the pIC50 was 6.21.

As for `CC(C)c1c(-c2ccc(OC(F)(F)F)c(Cl)c2)[nH]c2c(C#N)cnn2c1=O` [Example 207], the pIC50 was 7.48.

Consider `CC(C)c1c(C2=CCCNC2)[nH]c2c(C#N)cnn2c1=O` [Example 294], for which the pIC50 is 7.21.

Take `CCc1c(C)n(CCOC)c2c(C#N)cnn2c1=O` [Example 194]: the pIC50 was 5.64.

`CCc1c(C)n(CCO)c2c(C#N)cnn2c1=O` [Example 195]: the negative logarithm of the IC50 (pIC50) is 5.66.

With `CC(C)c1c(-c2ccn(CC3CC3)n2)[nH]c2c(C#N)cnn2c1=O` (single isomer, unassigned) [Example 16, 5-(1-(cyclopropylmethyl)-1H-pyrazol-3-yl)-6-isopropyl-7-oxo-4,7-dihydropyrazolo[1,5-a]pyrimidine-3-carbonitrile], the negative-log IC50 (pIC50) is 7.96.

Regarding `CC(C)c1c(-c2cnn(Cc3ccccc3Oc3ccccc3)c2)[nH]c2c(C#N)cnn2c1=O` [Example 122], the pIC50 is 7.89.

Take `Cc1occc1-c1[nH]c2c(C#N)cnn2c(=O)c1C(C)C` [Example 53]: the pIC50 was 7.77.

As to `CC(C)c1c(-c2cnn(-c3cccc(F)c3)c2)[nH]c2c(C#N)cnn2c1=O` [Compound 359], the pIC50 is 7.70.

As to `CC(C)c1c(-c2cc(Cl)cc(Cl)c2)[nH]c2c(C#N)cnn2c1=O` [Example 243], the pIC50 was 7.70.

Take `CC(C)c1c(-c2ccc(C(F)(F)F)c(C3CC3)c2)[nH]c2c(C#N)cnn2c1=O` [Compound 354]: the pIC50 is 7.11.

Turning to `CC(C)c1c(-c2cc(C(=O)N(C)C)n(C(C)C)c2)[nH]c2c(C#N)cnn2c1=O` [Compound 417], the pIC50 is 7.51.

In the case of `CC(C)c1c(-c2cnn(C3CCC(F)C3)c2)[nH]c2c(C#N)cnn2c1=O` (stereo not drawn) [Compound 389], the pIC50 was 7.48.

Regarding `CC(C)c1c(-c2ccc(F)cc2)n(C)c2c(C#N)cnn2c1=O` [Example 183], the pIC50 was 7.48.

Consider `CC(C)c1c(-c2cccc(NS(C)(=O)=O)c2)[nH]c2c(C#N)cnn2c1=O` [Compound 375], for which the pIC50 is 7.72.

In the case of `CCc1c(-c2cn[nH]c2)[nH]c2c(C#N)cnn2c1=O` [Example 92], the pIC50 is 8.26.

In the case of `CC(C)c1c(-c2ccn(S(C)(=O)=O)c2)[nH]c2c(C#N)cnn2c1=O` [Example 210], the pIC50 was 7.92.

In the case of `CNC(=O)C(C)(C)n1cc(-c2[nH]c3c(C#N)cnn3c(=O)c2C(C)C)cn1` [Example 13, 2-(4-(3-Cyano-6-isopropyl-7-oxo-4,7-dihydropyrazolo[1,5-a]pyrimidin-5-yl)-1H-pyrazol-1-yl)-N,2-dimethylpropanamide], the pIC50 was 7.64.

With `CC(=O)/C=C/c1cccc(Cn2cc(-c3[nH]c4c(C#N)cnn4c(=O)c3C(C)C)cn2)n1` [Example 19, (E)-6-isopropyl-7-oxo-5-(1-((6-(3-oxobut-1-en-1-yl)pyridin-2-yl)methyl)-1H-pyrazol-4-yl)-4,7-dihydropyrazolo[1,5-a]pyrimidine-3-carbonitrile], the negative-log IC50 (pIC50) was 7.26.

Regarding `CC(C)c1c(-c2ccc(OCc3ccccc3)cc2)[nH]c2c(C#N)cnn2c1=O` [Example 324], the pIC50 was 7.59.

For `CC(C)c1c(-c2cc(C3CC3)nn2C2CCCC2)[nH]c2c(C#N)cnn2c1=O` [Compound 413], the pIC50 is 6.96.

On to `CC(C)c1c(-c2cccc(-c3ccc(NS(C)(=O)=O)cc3)c2)[nH]c2c(C#N)cnn2c1=O` [Compound 429], for which the pIC50 is 7.57.

Take `CC(C)c1c(-c2ccc(C#N)cc2)n(C)c2c(C#N)cnn2c1=O` [Example 184]: the pIC50 was 7.25.

With `Cc1[nH]c2c(C#N)cnn2c(=O)c1Sc1ccccc1Cl` [Example 220], the negative logarithm of the IC50 (pIC50) was 4.68.

For the compound `C/C=C/Cc1c(-c2ccccc2)[nH]c2c(C#N)cnn2c1=O` [Example 231], the pIC50 is 6.77.

Turning to `CCS(=O)(=O)c1ccc(-c2[nH]c3c(C#N)cnn3c(=O)c2C(C)C)cc1` [Example 332], the negative logarithm of the IC50 (pIC50) is 7.70.

For the compound `CC(C)c1c(-c2ccc(C(N)=O)cc2)[nH]c2c(C#N)cnn2c1=O` [Compound 367], the pIC50 is 7.60.

Regarding `CC(C)c1c(-c2cc(C(F)(F)F)cc(C(F)(F)F)c2)[nH]c2c(C#N)cnn2c1=O` [Example 265], the pIC50 is 7.40.

Regarding `CC(C)c1c(-c2cnn(CC(F)(F)F)c2)[nH]c2c(C#N)cnn2c1=O` [Example 156], the negative logarithm of the IC50 (pIC50) was 7.66.

For `CC(C)c1c(-c2cc(F)cc(F)c2)[nH]c2c(C#N)cnn2c1=O` [Example 325], the negative-log IC50 (pIC50) was 7.72.

For `CC(C)c1c(-c2cc(F)cc(NC(=O)OCc3ccccc3)c2)[nH]c2c(C#N)cnn2c1=O` [Example 269], the pIC50 was 7.72.

As to `Cc1ccc(-c2[nH]c3c(C#N)cnn3c(=O)c2C(C)C)cc1C(F)(F)F` [Example 343], the pIC50 is 7.44.

`CC(C)c1c(-c2cccc(CN3CCOCC3)c2)[nH]c2c(C#N)cnn2c1=O` [Compound 357]: the pIC50 is 7.66.

Regarding `CC(C)c1c(-c2cccc(C#N)c2)[nH]c2c(C#N)cnn2c1=O` [Example 79], the pIC50 is 7.89.
